Where a name gives a salt, the structure may show the parent alone.
Assays:
Assay type in all cases: biochemical
Lectin Pathway = assay: Lectin pathway activation assay in human serum (mannan-coated ELISA, C3c detection); details: 1% human serum
MASP-2 (CCP1-CCP2-SP) = MASP-2 (CCP1-CCP2-SP) (Homo sapiens (Human), UniProt O00187); assay: biochemical; details: for Ki: read-out: MASP-2 Ki
mMASP-2 = mMASP-2 (Mus musculus (Mouse), UniProt Q91WP0); assay: Enzymatic inhibition of mMASP-2; details: read-out: mMASP-2 Ki
human α-thrombin = human α-thrombin (Homo sapiens (Human), UniProt P00734); assay: Enzymatic assay for thrombin (Boc-VPR-AMC substrate); details: read-out: Thrombin Ki
[1] = MASP-2 inhibition versus thrombin

MASP-2 (CCP1-CCP2-SP), sequence (O00187 445-686): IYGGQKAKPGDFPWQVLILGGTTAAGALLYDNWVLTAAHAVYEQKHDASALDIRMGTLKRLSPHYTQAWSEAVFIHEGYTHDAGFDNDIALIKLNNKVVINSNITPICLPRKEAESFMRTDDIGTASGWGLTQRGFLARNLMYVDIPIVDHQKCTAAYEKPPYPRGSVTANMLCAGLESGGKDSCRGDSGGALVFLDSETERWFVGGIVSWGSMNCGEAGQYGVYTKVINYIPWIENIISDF
mMASP-2, sequence (Q91WP0 20-685): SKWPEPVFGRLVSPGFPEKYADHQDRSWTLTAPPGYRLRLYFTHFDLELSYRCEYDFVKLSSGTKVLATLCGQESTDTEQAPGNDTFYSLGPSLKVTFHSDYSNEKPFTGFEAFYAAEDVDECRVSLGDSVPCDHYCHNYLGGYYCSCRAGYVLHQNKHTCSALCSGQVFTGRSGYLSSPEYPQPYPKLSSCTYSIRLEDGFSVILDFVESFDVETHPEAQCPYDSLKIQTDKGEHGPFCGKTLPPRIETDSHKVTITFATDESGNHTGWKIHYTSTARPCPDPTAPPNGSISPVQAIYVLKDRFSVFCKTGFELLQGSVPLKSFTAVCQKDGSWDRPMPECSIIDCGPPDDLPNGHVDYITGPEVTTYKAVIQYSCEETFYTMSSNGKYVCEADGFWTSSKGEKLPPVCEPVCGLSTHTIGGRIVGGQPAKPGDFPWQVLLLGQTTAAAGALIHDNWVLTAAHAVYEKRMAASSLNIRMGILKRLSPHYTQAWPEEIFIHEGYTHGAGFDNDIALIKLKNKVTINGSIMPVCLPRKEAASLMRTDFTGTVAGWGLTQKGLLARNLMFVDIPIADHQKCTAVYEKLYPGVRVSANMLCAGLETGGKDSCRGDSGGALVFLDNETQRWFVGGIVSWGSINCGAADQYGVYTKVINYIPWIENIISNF

Structure (SMILES)	IC50 (Lectin Pathway) [nM]	Ki (MASP-2 (CCP1-CCP2-SP)) [nM]	MASP-2 vs. thrombin selectivity (MASP-2 (CCP1-CCP2-SP); selectivity for MASP-2 inhibition versus thrombin)	Ki (mMASP-2) [nM]	Ki (human α-thrombin) [nM]	MASP-2 vs. thrombin selectivity (MASP-2 (CCP1-CCP2-SP); [1])
C[C@H](NC(=O)[C@H]1C[C@H](Cc2ccccc2)CN1)C(=O)NCc1cnc2c(c1)c(Cl)cn2C [compound 1450, (2R,4S)-4-Benzyl-N-((S)-1-(((3-chloro-1-methyl-1H-pyrrolo[2,3-b]pyridin-5-yl)methyl)amino)-1-oxopropan-2-yl)pyrrolidine-2-carboxamide Dihydrochloride]	50 to 500	< 500	**** (≥100-fold)	< 500	–	–
C[C@H](NC(=O)[C@H](N)CCc1ccccc1)C(=O)NCCc1ccc(N)nc1 [compound 1015, (R)-2-Amino-N—((S)-1-((2-(6-aminopyridin-3-yl)ethyl)amino)-1-oxopropan-2-yl)-4-phenylbutanamide Dihydrochloride]	5000 to 50000	–	–	< 25000	> 25000	–
Cc1nc(N)ccc1CNC(=O)C(C)NC(=O)[C@H]1C[C@H](c2cccc(-c3ccccc3)c2)CN1 (stereo in doubt) [compound 1360, (2R,4R)-4-([1,1′-Biphenyl]-3-yl)-N—((R)-1-(((6-amino-2-methylpyridin-3-yl)methyl)amino)-1-oxopropan-2-yl)pyrrolidine-2-carboxamide Di-trifluoroacetate salt]	50 to 500	–	–	< 500	> 25000	–
C[C@H](NC(=O)[C@H](N)C1Cc2ccccc2C1)C(=O)NCc1ccc2c(N)nccc2c1 [compound 1088, (S)-2-((R)-2-Amino-2-(2,3-dihydro-1H-inden-2-yl)acetamido)-N-((1-aminoisoquinolin-6-yl)methyl)propanamide Dihydrochloride]	50 to 500	< 500	–	< 500	–	–
C[C@H](NC(=O)[C@H](N)C1Cc2ccccc2C1)C(=O)NCc1ccc2nc(N)ccc2c1 [compound 1091]	5000 to 50000	–	–	< 500	> 25000	–
Cc1nc(N)ccc1CNC(=O)[C@H](C)NC(=O)[C@H]1C[C@H](Cc2ccc(-c3ccc(F)cc3C#N)cc2)CN1 [compound 1396, (2R,4S)—N—((S)-1-(((6-Amino-2-methylpyridin-3-yl)methyl)amino)-1-oxopropan-2-yl)-4-((2′-cyano-4′-fluoro-[1,1′-biphenyl]-4-yl)methyl)pyrrolidine-2-carboxamide]	500 to 5000	–	–	< 500	> 25000	–
N=C(N)c1ccc(CNC(=O)[C@@H]2CCN2C(=O)[C@@H](CCCc2ccccc2)NCC(=O)O)cc1 [compound 1131]	500 to 5000	< 500	–	–	< 500	−− (less than 1.0-fold)
C[C@H](NC(=O)[C@H](N)CCCc1ccccc1)C(=O)NCc1ccc(C(=N)N)cc1 [compound 1042]	< 50	< 500	–	–	< 500	** (5.0 to 25-fold)
C[C@H](NC(=O)[C@H](N)CCc1ccccc1)C(=O)NCCc1ccnc(N)c1 [compound 1016, (R)-2-Amino-N—((S)-1-((2-(2-aminopyridin-4-yl)ethyl)amino)-1-oxopropan-2-yl)-4-phenylbutanamide Dihydrochloride]	5000 to 50000	–	–	< 25000	> 25000	–
C[C@@H](C(=O)NCc1ccc2c(N)nccc2c1)N(C)C(=O)[C@H](N)CCc1cccc(C(F)(F)F)c1 [compound 1139, (R)-2-Amino-N—((S)-1-(((1-aminoisoquinolin-6-yl)methyl)amino)-1-oxopropan-2-yl)-N-methyl-4-(3-(trifluoromethyl)phenyl)butanamide Dihydrochloride]	5000 to 50000	< 500	–	< 10000	–	–
C[C@H](NC(=O)[C@H](NCC(=O)O)C1CCCCC1)C(=O)NCc1ccc(C(=N)N)cc1 [compound 1094]	5000 to 50000	< 500	–	–	< 500	−− (less than 1.0-fold)
N=C(N)c1ccc(CNC(=O)[C@@H]2CCN2C(=O)[C@@H](CC2CCCCC2)NCC(=O)O)cc1 [compound 1114]	500 to 5000	< 500	–	–	< 500	−− (less than 1.0-fold)

From patent US11584714B2 (priority 2018, dated 2023)
